Assay results as given in ChEMBL document CHEMBL2406903, “FPRL-1 Receptor Modulators May Provide Treatment for Inflammation” (ACS Med Chem Lett, 2013).

molecular target: T1, N-formyl peptide receptor 2 (Homo sapiens) (UniProt P25090); test: Modulation of FPRL1 (unknown origin) expressed in CHO-Ga16 cells assessed as induction of calcium activity at 0.61 to 10000 nM by FLIPR assay relative to control; assay type: functional, cell-based
T1 sequence (whole entry): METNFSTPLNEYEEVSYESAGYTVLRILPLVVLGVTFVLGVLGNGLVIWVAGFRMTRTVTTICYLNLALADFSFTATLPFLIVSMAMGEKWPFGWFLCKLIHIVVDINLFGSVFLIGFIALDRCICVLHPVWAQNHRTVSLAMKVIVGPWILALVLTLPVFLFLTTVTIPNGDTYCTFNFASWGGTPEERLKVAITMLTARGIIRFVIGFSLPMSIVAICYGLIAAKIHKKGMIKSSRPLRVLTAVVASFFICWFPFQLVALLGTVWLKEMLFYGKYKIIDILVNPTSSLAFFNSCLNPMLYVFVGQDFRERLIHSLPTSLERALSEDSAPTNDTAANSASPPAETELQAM

| fold change (FC) | Structure (SMILES) |
| --- | --- |
| 0.96 | CC(C)C[C@H](NC(=O)Nc1ccc(Br)cc1)C(=O)NC(C)(C)C(=O)O |
| 0.45 | CC[C@@H](C)[C@@H](NC(=O)Nc1ccc(Br)cc1)C(=O)NCC(=O)O |
| 0.92 | CC(C)C[C@H](NC(=O)Nc1ccc(C(F)(F)F)cc1)C(=O)NC(C)(C)C(=O)O |
